From patent US20120065228A1, “COMPOSITIONS AND METHODS FOR TREATING, CONTROLLING, REDUCING, OR AMELIORATING OCULAR INFLAMMATORY WITH LOWER RISK OF INCREASED INTRAOCULAR PRESSURE” (priority 2007, published 2012)
Where “and” joins values, the source holds several entries; their conditions need not be identical. Identical values can stand only once. Like-named read-outs stand apart in the source and are kept apart here.

Columns and labels:
Assay type in all cases: in vivo
[1] = system: New Zealand White rabbits; details: for Rabbits that died or were euthanized between Days 11 and 33: right eye four times daily, Days 1-31; for Mortality (animals found dead or euthanized prior to study completion/number of animals in group): 50 μL topical right eye 4 x daily, to Day 33
Description: On Days 1-31, animals received daily topical doses of the appropriate test article into the right eye. Animals were dosed four times per day, with doses administered 2 hours apart. Doses were administered using a calibrated 50-μL pipette. The eyelids were held close for 10 seconds immediately following dosing. The time of each dose administration was recorded.
Animals determined to be moribund were euthanized with an intravenous injection of commercial euthanasia solution.

leukocytes (PMN) = assay: Leukocytes (PMN) measurement in aqueous humor, rabbit paracentesis model; details: second paracentesis; for PMN in aqueous humor: individual eyes, listed as BOL
Description: (§1) Each rabbit was placed in a restraint device and tagged with the alphanumeric code. The formulations were instilled (50 μl) into the conjunctival sac of both eyes 180, 120, 90 and 30 min before the first paracentesis; then 15, 30, 90 min after the first paracentesis. To perform the first paracentesis the animals were anaesthetized by intravenous injection of 5 mg/kg Zoletil® (Virbac; 2.5 mg/kg tiletamine HCl and 2.5 mg/kg zolazepam HCl) and one drop of local anesthetic (Novesina®, Novartis) was administered to the eye. Anterior chamber paracentesis was performed with a 26 G needle attached to a tuberculin syringe; the needle was introduced into the anterior chamber through the cornea, taking care not to damage the tissues. Two hours after the ® first paracentesis, the animals were sacrificed with 0.4 ml Tanax® (Intervet International B.V.) and the second paracentesis was performed. About 100 μl of aqueous humor were removed at the second paracentesis. Aqueous humor was immediately split in four aliquots and stored at −80° C. until analysis. Then both eyes were enucleated and the iris-ciliary body was carefully excised, placed in polypropylene tubes, and stored at −80° C. until analysis.
For the determination of the number of leukocytes we used a haemocytometer (Improved Neubauer Chamber; Bright-line. Hausser Scientific) and a Polyvar 2 microscope (Reichert-Jung).
(§2) Pupillary diameter, PGE2, protein, PMN, and MPO were expressed as mean±SEM. Statistical analysis was performed using one way ANOVA followed by a Newman-Keuls post hoc test. Clinical score was expressed as % of eyes and the statistical analysis was performed using Kruskal-Wallis followed by a Dunn post hoc test. P<0.05 was considered statistically significant in both cases. Prism 4 software (GraphPad Software, Inc.) was used for the analysis and graphs.

rabbit eye [2] = assay: Pupillary diameter measurement, rabbit paracentesis model; details: individual eyes, listed as BOL; for Pupillary diameter T2: −5 min: 5 min before the first paracentesis; for Pupillary diameter T3: +115 min: 5 min before the second paracentesis; for Pupillary diameter Δ(T3 − T1): +115 min minus −180 min; for Pupillary diameter T1: −180 min: basal
Description: as §1
The pupillary diameter of both eyes was measured with a Castroviejo caliper 180 min and 5 min before the first paracentesis and 5 min before the second paracentesis.
as §2

Myeloperoxidase (MPO) = Myeloperoxidase (MPO) activity in iris-ciliary body, rabbit paracentesis model; details: for MPO Unit/g: iris-ciliary body samples collected after the second paracentesis, individual eyes (DX/SX), listed as BOL; for MPO activity in iris-ciliary body, Mean: after the second paracentesis
Description: as §1
The activity of MPO was measured as previously described by Williams et al. The iris-ciliary bodies were carefully dried, weighed and immersed in 1 ml of hexa-decyl-trimethyl-ammonium bromide solution. Then, the samples were sonicated for 10 sec on ice by a ultrasound homogenizer (HD 2070, Bandelin electronic), freeze-thawed three times, sonicated for 10 sec and centrifuged at 14,000 g for 10 min to remove cellular debris. An aliquot of the supernatant (40-200 μl) was diluted to 3 ml with the o-dianisidine 2HCl/H2O2 solution. The change in absorbance at 460 nm was continuously monitored for 5 min by a spectrophotometer (UV/Vis Spectrometer Lambda EZ 201; Perkin Elmer). The slope of the line (Δ/min) was determined for each sample and used to calculate the number of units of MPO in the tissue as follows:
were ε=11.3 mM^−1. Values were expressed as units of MPO/g of tissue.
as §2

rabbit eye [3] = assay: Clinical evaluation by slit lamp (clinical score), rabbit paracentesis model; design: key to Clinical Score −180 min / Clinical Score −5 min / Clinical Score +115 min: 0: normal; 1: discrete dilatation of iris and conjunctival vessels; 2: moderate dilatation of iris and conjunctival vessels; 3: intense iridal hyperemia with flare in the anterior chamber; 4: intense iridal hyperemia with flare in the anterior chamber and presence of fibrinous exudates; details: for Clinical Score −5 min: 5 min before the first paracentesis; for Clinical Score −5 min / Clinical Score +115 min / Clinical Score −180 min: individual eyes; for Clinical Score +115 min: 5 min before the second paracentesis; for Clinical Score −180 min: basal
[4] = system: protein concentration in the aqueous humor; assay: Protein measurement in aqueous humor, rabbit paracentesis model; details: for Protein in aqueous humor, Mean / Protein in aqueous humor: second paracentesis; for Protein in aqueous humor: individual eyes, listed as BOL
Description: as §1
For protein concentration determination in the aqueous humor we used the Protein Quantification Kit (Fluka; Cat. No. 77371; Lot. No. 1303129). Five microliters of aqueous humor were diluted to 100 μl with water. Twenty microliters of samples and of standards were load into a 96-well plate and recorded in a plate layout. Samples were treated following the assay procedure described in the kit. A microplate reader (GDV, Italy; model DV 990 B/V6) set at 670 nm was used for making the calibration and analyzing the samples.
as §2

[5] = 0.1% topical formulation, +115 min, 8 eyes
[6] = 0.5% topical formulation, +115 min, 8 eyes

Cc1ccc2c(NCC(O)(CC(C)(C)c3cc(F)cc4c3OCC4)C(F)(F)F)cccc2n1 (centres unmarked) [BOL-303242-X]
Rabbits that died or were euthanized between Days 11 and 33 ([1]; 0.05 mg/dose (0.1% dexamethasone suspension; 1 mg/g BOL-303242-X suspension)): one of ten | Mortality (animals found dead or euthanized prior to study completion/number of animals in group) ([1]; 1 mg/g, 0.05 mg/dose): 1/10^(6) | Day of Death (day euthanized or found dead) ([1]; 5 mg/g BOL-303242-X ([…]) topical 4 x daily, individual rabbits, Group C): 33 | Rabbits that died or were euthanized between Days 11 and 33 ([1]; 5 mg/g suspension ([…])): two of ten | Mortality (animals found dead or euthanized prior to study completion/number of animals in group) ([1]; 5 mg/g, […]): 2/10^(5) | Day of Death (day euthanized or found dead) ([1]; 10 mg/g BOL-303242-X (0.5 mg/dose) topical 4 x daily, individual rabbit, Group B): 11 | Rabbits that died or were euthanized between Days 11 and 33 ([1]; 10 mg/g suspension (0.5 mg/dose)): one of ten | Morbidity observation in surviving rabbits ([1]; 10 mg/g suspension (0.5 mg/dose), one surviving rabbit (Group B, No. 3048)): diarrhea on Day 18 | Mortality (animals found dead or euthanized prior to study completion/number of animals in group) ([1]; 10 mg/g, 0.5 mg/dose): 1/10^(4) | Mortality rate ([1]; right eye four times daily up to 31 days, dexamethasone 0.05 mg/dose, BOL-303242-X per dose level (0.05, 0.25, 0.5 mg/dose)): 1-2 deaths per 10 rabbits | PMN in aqueous humor, Mean (leukocytes (PMN); 0.1% topical formulation): 28.333 number/μl | PMN in aqueous humor (leukocytes (PMN); 0.1% topical formulation): 20 number/μl (4×) and 40 number/μl and 50 number/μl | PMN in aqueous humor, Mean (leukocytes (PMN); 0.5% topical formulation): 21.250 number/μl | PMN in aqueous humor (leukocytes (PMN); 0.5% topical formulation): 40 number/μl (2×) and 20 number/μl (3×) and 10 number/μl (3×) | PMN in aqueous humor, Mean (leukocytes (PMN); 1% topical formulation): 28.750 number/μl | PMN in aqueous humor (leukocytes (PMN); 1% topical formulation): 30 number/μl (3×) and 20 number/μl (3×) and 40 number/μl (2×) | Pupillary diameter T2: −5 min (rabbit eye [2]; 0.1% topical formulation): 6.5 mm (3×) and 7.0 mm (4×) and 7.5 mm | Pupillary diameter T3: +115 min (rabbit eye [2]; 0.1% topical formulation): 5.0 mm (2×) and 6.0 mm (3×) and 6.5 mm and 5.5 mm (2×) | Pupillary diameter Δ(T3 − T1) (rabbit eye [2]; 0.1% topical formulation): −1.5 mm (4×) and −0.5 mm (2×) and −1.0 mm (2×) | Pupillary diameter T1: −180 min (rabbit eye [2]; 0.1% topical formulation): 6.5 mm (4×) and 7.0 mm (3×) and 7.5 mm | Pupillary diameter T2: −5 min (rabbit eye [2]; 0.5% topical formulation): 8.0 mm (3×) and 7.0 mm (4×) and 7.5 mm | Pupillary diameter T3: +115 min (rabbit eye [2]; 0.5% topical formulation): 6.5 mm (4×) and 6.0 mm (2×) and 7.0 mm (2×) | Pupillary diameter Δ(T3 − T1) (rabbit eye [2]; 0.5% topical formulation): −1.5 mm (2×) and −0.5 mm (2×) and −1.0 mm (4×) | Pupillary diameter T1: −180 min (rabbit eye [2]; 0.5% topical formulation): 8.0 mm (3×) and 7.0 mm (3×) and 7.5 mm (2×) | Pupillary diameter T2: −5 min (rabbit eye [2]; 1% topical formulation): 6.0 mm (2×) and 6.5 mm (4×) and 7.0 mm (2×) | Pupillary diameter T3: +115 min (rabbit eye [2]; 1% topical formulation): 5.5 mm (2×) and 5.0 mm (4×) and 6.0 mm (2×) | Pupillary diameter Δ(T3 − T1) (rabbit eye [2]; 1% topical formulation): −0.5 mm (3×) and −1.5 mm (2×) and −1.0 mm (3×) | Pupillary diameter T1: −180 min (rabbit eye [2]; 1% topical formulation): 6.0 mm (3×) and 6.5 mm (5×) | MPO Unit/g (Myeloperoxidase (MPO); 0.1% BOL): 1.04 Unit/g and 1.00 Unit/g and 1.14 Unit/g and 1.06 Unit/g and 1.22 Unit/g and 0.61 Unit/g and 1.05 Unit/g and 0.65 Unit/g | MPO activity in iris-ciliary body, Mean (Myeloperoxidase (MPO); 0.1% topical formulation): 0.971 MPO Unit/g | MPO Unit/g (Myeloperoxidase (MPO); 0.5% BOL): 0.85 Unit/g and 0.93 Unit/g and 0.79 Unit/g and 1.03 Unit/g and 0.75 Unit/g and 0.74 Unit/g and 0.54 Unit/g and 0.58 Unit/g | MPO activity in iris-ciliary body, Mean (Myeloperoxidase (MPO); 0.5% topical formulation): 0.775 MPO Unit/g | MPO Unit/g (Myeloperoxidase (MPO); 1% BOL): 0.66 Unit/g and 0.68 Unit/g and 0.49 Unit/g and 0.40 Unit/g and 0.34 Unit/g and 1.02 Unit/g and 0.31 Unit/g and 0.43 Unit/g | MPO activity in iris-ciliary body, Mean (Myeloperoxidase (MPO); 1% topical formulation): 0.542 MPO Unit/g | Clinical Score −5 min (rabbit eye [3]; 0.1% topical formulation): 0 | Clinical Score +115 min (rabbit eye [3]; 0.1% topical formulation, listed as BOL): 2 (6×) and 3 (2×) | Clinical score as percentage of eyes, Score (%) 2 (rabbit eye [3]; [5]): 75% | Clinical score as percentage of eyes, Score (%) 3 (rabbit eye [3]; [5]): 25% | Clinical Score −180 min (rabbit eye [3]; 0.1% topical formulation): 0 | Clinical score as percentage of eyes, Score (%) 0 (rabbit eye [3]; 0.1% topical formulation, −5 min, 8 eyes): 100% | Clinical score as percentage of eyes, Score (%) 0 (rabbit eye [3]; 0.1% topical formulation, −180 min (basal), 8 eyes): 100% | Clinical Score −5 min (rabbit eye [3]; 0.5% topical formulation): 0 | Clinical Score +115 min (rabbit eye [3]; 0.5% topical formulation, listed as BOL): 2 (5×) and 1 (3×) | Clinical score as percentage of eyes, Score (%) 1 (rabbit eye [3]; [6]): 37.5% | Clinical score as percentage of eyes, Score (%) 2 (rabbit eye [3]; [6]): 62.5% | Clinical Score −180 min (rabbit eye [3]; 0.5% topical formulation): 0 | Clinical score as percentage of eyes, Score (%) 0 (rabbit eye [3]; 0.5% topical formulation, −5 min, 8 eyes): 100% | Clinical score as percentage of eyes, Score (%) 0 (rabbit eye [3]; 0.5% topical formulation, −180 min (basal), 8 eyes): 100% | Clinical Score −5 min (rabbit eye [3]; 1% topical formulation): 0 | Clinical Score +115 min (rabbit eye [3]; 1% topical formulation): 2 | Clinical score as percentage of eyes, Score (%) 2 (rabbit eye [3]; 1% topical formulation, +115 min, 8 eyes): 100% | Clinical Score −180 min (rabbit eye [3]; 1% topical formulation): 0 | Clinical score as percentage of eyes, Score (%) 0 (rabbit eye [3]; 1% topical formulation, −5 min, 8 eyes): 100% | Clinical score as percentage of eyes, Score (%) 0 (rabbit eye [3]; 1% topical formulation, −180 min (basal), 8 eyes): 100% | Protein in aqueous humor, Mean ([4]; 0.1% topical formulation): 33.667 mg/mL | Protein in aqueous humor ([4]; 0.1% topical formulation): 34.87 mg/mL and 34.41 mg/mL and 31.14 mg/mL and 22.82 mg/mL and 29.46 mg/mL and 31.69 mg/mL and 35.70 mg/mL and 49.25 mg/mL | Protein in aqueous humor, statistical significance vs CTR ([4]; 0.5% topical formulation, p<0.05): statistical significance | Protein in aqueous humor, Mean ([4]; 0.5% topical formulation): 28.844 mg/mL | Protein in aqueous humor ([4]; 0.5% topical formulation): 33.98 mg/mL and 33.65 mg/mL and 19.99 mg/mL and 27.11 mg/mL and 19.72 mg/mL and 36.35 mg/mL and 27.71 mg/mL and 32.24 mg/mL | Protein in aqueous humor, statistical significance vs CTR ([4]; 1% topical formulation, p<0.001): statistical significance | Protein in aqueous humor, Mean ([4]; 1% topical formulation): 21.435 mg/mL | Protein in aqueous humor ([4]; 1% topical formulation): 20.99 mg/mL and 21.48 mg/mL and 15.11 mg/mL and 20.28 mg/mL and 20.94 mg/mL and 21.89 mg/mL and 20.03 mg/mL and 30.76 mg/mL
